Source: patent publication US7247617B2, “Sixteen-member macrolide antiinfective agents” (Kosan Biosciences Incorporated, priority 2004, dated 2007)

Tests used:
S. pneumoniae = assay: Biological activity against bacterial strains: S. pneumoniae; assay type: cell-based, Streptococcus pneumoniae; set-up: Biological Activity, S. pneumoniae ATCC6301 / Biological Activity, S. pneumoniae ATCC700671 / Biological Activity, S. pneumoniae ATCC700676* / Biological Activity, S. pneumoniae ATCC700677* / Biological Activity, S. pneumoniae ATCC700905* / Biological Activity, S. pneumoniae ATCC700906* / Biological Activity, S. pneumoniae ATCC49619: unit not given here; conditions: for Biological Activity, S. pneumoniae ATCC6301: strain ATCC6301; for Biological Activity, S. pneumoniae ATCC49619: strain ATCC49619; for Biological Activity, S. pneumoniae ATCC700671: strain ATCC700671; for Biological Activity, S. pneumoniae ATCC700676*: strain ATCC700676, macrolide resistant strain; for Biological Activity, S. pneumoniae ATCC700677*: strain ATCC700677, macrolide resistant strain; for Biological Activity, S. pneumoniae ATCC700905*: strain ATCC700905, macrolide resistant strain; for Biological Activity, S. pneumoniae ATCC700906*: strain ATCC700906, macrolide resistant strain
S. epidermidis = assay: Biological activity against bacterial strains: S. epidermidis; assay type: cell-based, Staphylococcus epidermidis; conditions: strain ATCC12228
S. aureus = assay: Biological activity against bacterial strains: S. aureus; assay type: cell-based, Staphylococcus aureus; set-up: unit not given here; conditions: for Biological Activity, S. aureus ATCC6538p: strain ATCC6538p; for Biological Activity, S. aureus ATCC14154*: strain ATCC14154, macrolide resistant strain; for Biological Activity, S. aureus ATCC29213: strain ATCC29213; for Biological Activity, S. aureus ATCC33591*: strain ATCC33591, macrolide resistant strain; for Biological Activity, S. aureus ATCCBAA-39*: strain ATCCBAA-39, macrolide resistant strain; for Biological Activity, S. aureus ATCCBAA-44*: strain ATCCBAA-44, macrolide resistant strain
Haemophilus Influenzae = assay: H. influenzae Activity; assay type: cell-based
E. faecalis = assay: Biological activity against bacterial strains: E. faecalis; assay type: cell-based, Enterococcus faecalis; conditions: strain ATCC51575

## CCC1OC(=O)CC(O)C(C)C(OC2OC(C)C(O)C(N(C)C)C2O)C(CC=O)CC(C)C(=NOCCCOc2ccc3ncccc3c2)C=CC(C)=CC1CO (stereo not drawn) [Compound A]
S. pneumoniae
  Biological Activity, S. pneumoniae ATCC6301: 0.025
  Biological Activity, S. pneumoniae ATCC49619: 0.01
  Biological Activity, S. pneumoniae ATCC700671: 0.025
  Biological Activity, S. pneumoniae ATCC700676*: 0.025
  Biological Activity, S. pneumoniae ATCC700677*: 0.20
  Biological Activity, S. pneumoniae ATCC700905*: 0.025
  Biological Activity, S. pneumoniae ATCC700906*: >12.5
S. epidermidis
  Biological Activity, S. epidermidis ATCC12228: 0.098
S. aureus
  Biological Activity, S. aureus ATCC6538p: 0.025
  Biological Activity, S. aureus ATCC14154*: 0.20
  Biological Activity, S. aureus ATCC29213: 0.098
  Biological Activity, S. aureus ATCC33591*: >12.5
  Biological Activity, S. aureus ATCCBAA-39*: >12.5
  Biological Activity, S. aureus ATCCBAA-44*: >12.5
Haemophilus Influenzae; strain ATCC9006
  H. influenzae Activity, strain ATCC9006: 6.25
Haemophilus Influenzae; strain ATCC49766
  H. influenzae Activity, strain ATCC49766: 6.25
Haemophilus Influenzae; strains ATCC9006 and ATCC49766
  decrease in activity compared to OMT: ~4 fold
E. faecalis
  Biological Activity, E. faecalis ATCC51575: >12.5

## CCC1OC(=O)CC(O)C(C)C(OC2OC(C)C(O)C(N(C)C)C2O)C(CCN2CC(C)CC(C)C2)CC(C)C(=NOCC(=O)N2CCN(c3ccccc3)CC2)C=CC(C)=CC1CO (stereo not drawn) [Compound X]
S. pneumoniae
  Biological Activity, S. pneumoniae ATCC6301: 0.049
  Biological Activity, S. pneumoniae ATCC49619: 0.049
  Biological Activity, S. pneumoniae ATCC700671: 0.098
  Biological Activity, S. pneumoniae ATCC700676*: 1.56
  Biological Activity, S. pneumoniae ATCC700677*: >12.5
  Biological Activity, S. pneumoniae ATCC700905*: 0.78
  Biological Activity, S. pneumoniae ATCC700906*: >12.5
S. epidermidis
  Biological Activity, S. epidermidis ATCC12228: 0.78
S. aureus
  Biological Activity, S. aureus ATCC6538p: 0.39
  Biological Activity, S. aureus ATCC14154*: 3.12
  Biological Activity, S. aureus ATCC29213: 1.56
  Biological Activity, S. aureus ATCC33591*: >12.5
  Biological Activity, S. aureus ATCCBAA-39*: >12.5
  Biological Activity, S. aureus ATCCBAA-44*: >12.5
E. faecalis
  Biological Activity, E. faecalis ATCC51575: >12.5

## CC[C@H]1OC(=O)C[C@@H](O)[C@H](C)[C@@H](O[C@@H]2O[C@H](C)[C@@H](O)[C@H](N(C)C)[C@H]2O)[C@@H](CCN2C[C@H](C)C[C@H](C)C2)C[C@@H](C)C(=O)/C=C/C(C)=C/[C@@H]1CO[C@@H]1O[C@H](C)[C@@H](O)[C@@H](OC)[C@H]1OC [Tilm, tilmicosin, reference compound]
S. pneumoniae
  Biological Activity, S. pneumoniae ATCC6301: 0.39
  Biological Activity, S. pneumoniae ATCC49619: 1.56
  Biological Activity, S. pneumoniae ATCC700671: 0.78
  Biological Activity, S. pneumoniae ATCC700676*: 0.78
  Biological Activity, S. pneumoniae ATCC700677*: 6.25
  Biological Activity, S. pneumoniae ATCC700905*: 1.56
  Biological Activity, S. pneumoniae ATCC700906*: >12.5
S. epidermidis
  Biological Activity, S. epidermidis ATCC12228: 0.098
S. aureus
  Biological Activity, S. aureus ATCC6538p: 0.098
  Biological Activity, S. aureus ATCC14154*: 0.39
  Biological Activity, S. aureus ATCC29213: 0.20
  Biological Activity, S. aureus ATCC33591*: >12.5
  Biological Activity, S. aureus ATCCBAA-39*: >12.5
  Biological Activity, S. aureus ATCCBAA-44*: >12.5
E. faecalis
  Biological Activity, E. faecalis ATCC51575: >12.5

## CC[C@H]1OC(=O)C[C@@H](O)[C@H](C)[C@@H](O[C@@H]2O[C@H](C)[C@@H](O[C@H]3C[C@@](C)(O)[C@@H](O)[C@H](C)O3)[C@H](N(C)C)[C@H]2O)[C@@H](CC=O)C[C@@H](C)C(=O)/C=C/C(C)=C/[C@@H]1CO[C@@H]1O[C@H](C)[C@@H](O)[C@@H](OC)[C@H]1OC [Tyl, tylosin, reference compound]
S. pneumoniae
  Biological Activity, S. pneumoniae ATCC6301: 0.098
  Biological Activity, S. pneumoniae ATCC49619: 0.098
  Biological Activity, S. pneumoniae ATCC700671: 0.20
  Biological Activity, S. pneumoniae ATCC700676*: 0.20
  Biological Activity, S. pneumoniae ATCC700677*: >12.5
  Biological Activity, S. pneumoniae ATCC700905*: 0.20
  Biological Activity, S. pneumoniae ATCC700906*: >12.5
S. epidermidis
  Biological Activity, S. epidermidis ATCC12228: 0.39
S. aureus
  Biological Activity, S. aureus ATCC6538p: 0.20
  Biological Activity, S. aureus ATCC14154*: 1.56
  Biological Activity, S. aureus ATCC29213: 1.56
  Biological Activity, S. aureus ATCC33591*: >12.5
  Biological Activity, S. aureus ATCCBAA-39*: >12.5
  Biological Activity, S. aureus ATCCBAA-44*: >12.5
E. faecalis
  Biological Activity, E. faecalis ATCC51575: >12.5
